Data set [1] has as its system parent elite stiff stalk inbred corn. As to the kind of experiment: Preemergence effect of ALS herbicides (fresh weight, visual injury). The note with it: 200 g/ha, mean of four replications; for % Visual Injury Patent elite stiff stalk inbred: 4 weeks after treatment, 0% no injury, 100% plant death; for Fresh Weight (g) patent elite stiff stalk inbred: fresh shoots 4 weeks after treatment, untreated 36.7 g.

The test system is the same in data set [2]. As to the kind of experiment: Postemergence effect of ALS herbicides, glyphosate and glufosinate (fresh weight, visual injury). The note with it: 200 g/ha (glyphosate 3472 g ae/ha, glufosinate ammonium 1870 g/ha), mean of four replications; for % Visual Injury Parent elite stiff stalk inbred: 2 weeks after treatment, 0% no injury, 100% plant death; for Fresh Weight (g) Parent elite stiff stalk inbred: applied two weeks after planting, fresh shoots 2 weeks after treatment, untreated 76.4 g.

The subject of data set [3] is heterozygous GAT-HRA corn. The description is as above. The note with it: 200 g/ha (glyphosate 3472 g ae/ha, glufosinate ammonium 1870 g/ha), mean of four replications; for % Visual Injury Heterozygous GAT-HRA: 2 weeks after treatment, 0% no injury, 100% plant death; for Fresh Weight (g) Heterozygous GAT-HRA: applied two weeks after planting, fresh shoots 2 weeks after treatment, untreated 98.8 g.

Data set [4] has as its system heterozygous GAT-HRA corn. As to the kind of experiment: Preemergence effect of ALS herbicides (fresh weight, visual injury). Conditions: 200 g/ha, mean of four replications; for % Visual Injury Heterozygous GAT-HRA: 4 weeks after treatment, 0% no injury, 100% plant death; for Fresh Weight (g) Heterozygous GAT-HRA: fresh shoots 4 weeks after treatment, untreated 47.0 g.

Here are results for 18 molecules from patent US20080234130A1, “Compositions providing tolerance to multiple herbicides and methods of use thereof” (priority 2005, published 2008).

Consider `COC(=O)c1ccccc1CS(=O)(=O)NC(=O)Nc1nc(OC)cc(OC)n1` [Bensulfuron-methyl, methyl 2-[[[[[(4,6-dimethoxy-2-pyrimidinyl)amino]carbonyl]amino]sulfonyl]methyl]benzoate], for which the “% Visual Injury Patent elite stiff stalk inbred” value in data set [1] is 23%. Moreover, the “% Visual Injury Parent elite stiff stalk inbred” value in data set [2] is 93%. Besides, the “% Visual Injury Heterozygous GAT-HRA” value in data set [3] is reported as 14%; in data set [4] it was 10%.

Consider `COc1nc(C)nc(NC(=O)NS(=O)(=O)c2ccccc2Cl)n1` [Chlorsulfuron, 2-chloro-N-[[(4-methoxy-6-methyl-1,3,5-triazin-2-yl)amino]-carbonyl]benzenesulfonamide], for which, in data set [1], the “% Visual Injury Patent elite stiff stalk inbred” value is given as 100%. Besides, in data set [2], the “% Visual Injury Parent elite stiff stalk inbred” value is on record as 100%. Besides, the “% Visual Injury Heterozygous GAT-HRA” value in data set [3] is on record as 13%; in data set [4], 33%.

Take `CCOc1nc(NC)nc(NC(=O)NS(=O)(=O)c2ccccc2C(=O)OC)n1` [Ethametsulfuron-methyl, methyl 2-[[[[[4-ethoxy-6-(methylamino)-1,3,5-triazin-2-yl]amino]carbonyl]amino]sulfonyl]benzoate]: in data set [1], the “% Visual Injury Patent elite stiff stalk inbred” value stood at 100% and the “Fresh Weight (g) patent elite stiff stalk inbred” value is on record as 1.6 g. In data set [2], the “% Visual Injury Parent elite stiff stalk inbred” value is listed as 96% and the “Fresh Weight (g) Parent elite stiff stalk inbred” value was determined as 5.6 g. In data set [3], the “% Visual Injury Heterozygous GAT-HRA” value came to 6% and the “Fresh Weight (g) Heterozygous GAT-HRA” value turned out to be 98.0 g. Further, in data set [4], the “% Visual Injury Heterozygous GAT-HRA” value is given as 88% and the “Fresh Weight (g) Heterozygous GAT-HRA” value came out at 50.1 g.

For `CCOc1ccccc1OS(=O)(=O)NC(=O)Nc1nc(OC)cc(OC)n1` [Ethoxysulfuron, 2-ethoxyphenyl[[(4,6-dimethoxy-2-pyrimidinyl)amino]carbonyl]sulfamate], the “% Visual Injury Patent elite stiff stalk inbred” value in data set [1] came to 63%. Moreover, the “% Visual Injury Parent elite stiff stalk inbred” value in data set [2] turned out to be 88%. Besides, the “% Visual Injury Heterozygous GAT-HRA” value amounted to 15% in data set [3] and 25% in data set [4].

In the case of `COc1nn(C(=O)NS(=O)(=O)c2ccccc2OC(F)(F)F)c(=O)n1C` [Flucarbazone Na^+, 4,5-dihydro-3-methoxy-4-methyl-5-oxo-N-[[2-(trifluoromethoxy)phenyl]sulfonyl]-1H-1,2,4-triazole-1-carboxamide], the “% Visual Injury Patent elite stiff stalk inbred” value in data set [1] is 100%. Also, the “% Visual Injury Parent elite stiff stalk inbred” value in data set [2] turned out to be 100%. For the same molecule, the figures for the “% Visual Injury Heterozygous GAT-HRA” value in data set [3] and in data set [4] were 14% and 40%, respectively.

In the case of `Cc1ccn2nc(S(=O)(=O)Nc3c(F)cccc3F)nc2n1` [Flumetsulam, N-(2,6-difluorophenyl)-5-methyl[1,2,4]triazolo[1,5-a]pyrimidine-2-sulfonamide], the “% Visual Injury Patent elite stiff stalk inbred” value in data set [1] is 13%. The “% Visual Injury Parent elite stiff stalk inbred” value in data set [2] turned out to be 85%. Also, the “% Visual Injury Heterozygous GAT-HRA” value is on record as 3% in data set [3] and 13% in data set [4].

In the case of `COc1cc(OC)nc(NC(=O)NS(=O)(=O)c2cc(NC=O)ccc2C(=O)N(C)C)n1` [Foramsulfuron, 2-[[[[(4,6-dimethoxy-2-pyrimidinyl)amino]carbonyl]amino]sulfonyl]-4-(formylamino)-N,N-dimethylbenzamide], the “% Visual Injury Patent elite stiff stalk inbred” value in data set [1] worked out at 5%. Also, the “% Visual Injury Parent elite stiff stalk inbred” value in data set [2] stood at 28%. The “% Visual Injury Heterozygous GAT-HRA” value is 8% in data set [3] and 7% in data set [4].

For the molecule `CP(=O)(O)CCC(N)C(=O)O` (centres unmarked) [Glufosinate ammonium], in data set [2], the “% Visual Injury Parent elite stiff stalk inbred” value is given as 99% and the “Fresh Weight (g) Parent elite stiff stalk inbred” value is 2.4 g. Further, in data set [3], the “% Visual Injury Heterozygous GAT-HRA” value was 1% and the “Fresh Weight (g) Heterozygous GAT-HRA” value is recorded as 112.3 g.

For `COC(=O)c1c(Cl)nn(C)c1S(=O)(=O)NC(=O)Nc1nc(OC)cc(OC)n1` [Halosulfuron-methyl, methyl 3-chloro-5-[[[[(4,6-dimethoxy-2-pyrimidinyl)amino]-carbonyl]amino]sulfonyl]-1-methyl-1H-pyrazole-4-carboxylate], the “% Visual Injury Patent elite stiff stalk inbred” value in data set [1] is listed as 30%. Besides, the “% Visual Injury Parent elite stiff stalk inbred” value in data set [2] worked out at 14%. Besides, the “% Visual Injury Heterozygous GAT-HRA” value in data set [3] is recorded as 8%; in data set [4], 15%.

`COCc1cnc(C2=NC(C)(C(C)C)C(=O)N2)c(C(=O)O)c1` (centres unmarked) [Imazamox]: in data set [1], the “% Visual Injury Patent elite stiff stalk inbred” value was 99% and the “Fresh Weight (g) patent elite stiff stalk inbred” value turned out to be 0.8 g. In data set [2], the “% Visual Injury Parent elite stiff stalk inbred” value worked out at 100% and the “Fresh Weight (g) Parent elite stiff stalk inbred” value turned out to be 2.2 g. For the same molecule, in data set [3], the “% Visual Injury Heterozygous GAT-HRA” value came out at 4% and the “Fresh Weight (g) Heterozygous GAT-HRA” value is listed as 90.9 g. In addition, in data set [4], the “% Visual Injury Heterozygous GAT-HRA” value was 13% and the “Fresh Weight (g) Heterozygous GAT-HRA” value is reported as 47.5 g.

Regarding `CC(C)C1(C)N=C(c2nc3ccccc3cc2C(=O)O)NC1=O` (centres unmarked) [Imazaquin], in data set [1], the “% Visual Injury Patent elite stiff stalk inbred” value is on record as 99% and the “Fresh Weight (g) patent elite stiff stalk inbred” value amounted to 1.5 g. Further, in data set [2], the “% Visual Injury Parent elite stiff stalk inbred” value is on record as 100% and the “Fresh Weight (g) Parent elite stiff stalk inbred” value was 4.4 g. In addition, in data set [3], the “% Visual Injury Heterozygous GAT-HRA” value turned out to be 2% and the “Fresh Weight (g) Heterozygous GAT-HRA” value was found to be 113.3 g. Moreover, in data set [4], the “% Visual Injury Heterozygous GAT-HRA” value is 28% and the “Fresh Weight (g) Heterozygous GAT-HRA” value is 45.4 g.

Turning to `CCc1cnc(C2=NC(C)(C(C)C)C(=O)N2)c(C(=O)O)c1` (centres unmarked) [Imazethapyr], in data set [1], the “% Visual Injury Patent elite stiff stalk inbred” value amounted to 69%. Besides, in data set [2], the “% Visual Injury Parent elite stiff stalk inbred” value is given as 97%. Further, the results for the “% Visual Injury Heterozygous GAT-HRA” value in data set [3] and in data set [4] were 9% and 20%, respectively.

Take `COc1cc(OC)nc(NC(=O)NS(=O)(=O)c2ncccc2C(=O)N(C)C)n1` [Nicosulfuron, 2-[[[[(4,6-dimethoxy-2-pyrimidinyl)amino]carbonyl]amino]sulfonyl]-N,N-dimethyl-3-pyridinecarboxamide]: in data set [1], the “% Visual Injury Patent elite stiff stalk inbred” value was 43% and the “Fresh Weight (g) patent elite stiff stalk inbred” value amounted to 33.6 g. Also, in data set [2], the “% Visual Injury Parent elite stiff stalk inbred” value came out at 24% and the “Fresh Weight (g) Parent elite stiff stalk inbred” value came to 62.7 g. In addition, in data set [3], the “% Visual Injury Heterozygous GAT-HRA” value is given as 0% and the “Fresh Weight (g) Heterozygous GAT-HRA” value came to 94.7 g. In addition, in data set [4], the “% Visual Injury Heterozygous GAT-HRA” value is 0% and the “Fresh Weight (g) Heterozygous GAT-HRA” value turned out to be 50.3 g.

With `CCCOc1nn(C(=O)NS(=O)(=O)c2ccccc2C(=O)OC)c(=O)n1C` [Propoxycarbazone Na^+, methyl 2-[[[(4,5-dihydro-4-methyl-5-oxo-3-propoxy-1H-1,2,4-triazol-1-yl)carbonyl]amino]sulfonyl]benzoate], in data set [1], the “% Visual Injury Patent elite stiff stalk inbred” value came out at 100% and the “Fresh Weight (g) patent elite stiff stalk inbred” value turned out to be 0.6 g. Moreover, in data set [2], the “% Visual Injury Parent elite stiff stalk inbred” value was found to be 100% and the “Fresh Weight (g) Parent elite stiff stalk inbred” value is reported as 1.9 g. In data set [3], the “% Visual Injury Heterozygous GAT-HRA” value is listed as 9% and the “Fresh Weight (g) Heterozygous GAT-HRA” value stood at 101.2 g. In data set [4], the “% Visual Injury Heterozygous GAT-HRA” value stood at 100% and the “Fresh Weight (g) Heterozygous GAT-HRA” value was determined as 46.7 g.

For `COc1nc(C)nc(NC(=O)NS(=O)(=O)c2ccccc2CCC(F)(F)F)n1` [Prosulfuron, N-[[(4-methoxy-6-methyl-1,3,5-triazin-2-yl)amino]carbonyl]-2-(3,3,3-trifluoropropyl)benzenesulfonamide], the “% Visual Injury Patent elite stiff stalk inbred” value in data set [1] turned out to be 68%. For the same molecule, the “% Visual Injury Parent elite stiff stalk inbred” value in data set [2] came out at 25%. Besides, the figures for the “% Visual Injury Heterozygous GAT-HRA” value in data set [3] and in data set [4] were 29% and 9%, respectively.

Consider `CO/N=C(/C)c1cccc(Oc2nc(OC)cc(OC)n2)c1C(=O)OC` [Pyriminobac-methyl], for which, in data set [1], the “% Visual Injury Patent elite stiff stalk inbred” value was determined as 83% and the “Fresh Weight (g) patent elite stiff stalk inbred” value turned out to be 30.4 g. In data set [2], the “% Visual Injury Parent elite stiff stalk inbred” value stood at 93% and the “Fresh Weight (g) Parent elite stiff stalk inbred” value amounted to 7.6 g. Besides, in data set [3], the “% Visual Injury Heterozygous GAT-HRA” value is 4% and the “Fresh Weight (g) Heterozygous GAT-HRA” value is recorded as 95.2 g. In addition, in data set [4], the “% Visual Injury Heterozygous GAT-HRA” value was found to be 20% and the “Fresh Weight (g) Heterozygous GAT-HRA” value came out at 39.9 g.

For the molecule `COc1cc(OC)nc(Sc2cccc(Cl)c2C(=O)[O-])n1.[Na+]` [Pyrithiobac Na^+, pyrithiobac-sodium], in data set [1], the “% Visual Injury Patent elite stiff stalk inbred” value worked out at 100% and the “Fresh Weight (g) patent elite stiff stalk inbred” value is recorded as 0.0 g. For the same molecule, in data set [2], the “% Visual Injury Parent elite stiff stalk inbred” value amounted to 100% and the “Fresh Weight (g) Parent elite stiff stalk inbred” value was determined as 2.8 g. In data set [3], the “% Visual Injury Heterozygous GAT-HRA” value came out at 9% and the “Fresh Weight (g) Heterozygous GAT-HRA” value amounted to 87.9 g. Besides, in data set [4], the “% Visual Injury Heterozygous GAT-HRA” value worked out at 0% and the “Fresh Weight (g) Heterozygous GAT-HRA” value is 48.6 g.

Regarding `COC(=O)c1ccccc1S(=O)(=O)NC(=O)Nc1nc(C)cc(C)n1` [Sulfometuron-methyl, methyl 2-[[[[(4,6-dimethyl-2-pyrimidinyl)amino]carbonyl]amino]sulfonyl]-benzoate], in data set [1], the “% Visual Injury Patent elite stiff stalk inbred” value is 100% and the “Fresh Weight (g) patent elite stiff stalk inbred” value is given as 0.0 g. Further, in data set [2], the “% Visual Injury Parent elite stiff stalk inbred” value was 100% and the “Fresh Weight (g) Parent elite stiff stalk inbred” value was 2.0 g. In addition, in data set [3], the “% Visual Injury Heterozygous GAT-HRA” value turned out to be 2% and the “Fresh Weight (g) Heterozygous GAT-HRA” value turned out to be 104.5 g. In data set [4], the “% Visual Injury Heterozygous GAT-HRA” value was found to be 6% and the “Fresh Weight (g) Heterozygous GAT-HRA” value was 47.3 g.
